From the NIST ThermoML archive (doi:10.1021/je100017w)
Numbers after ± are expanded uncertainties.

Settings: Liquid

Question: Which “vapor or sublimation pressure” value (306.35 K) does the source give for CC[Si](OC)(OC)OC [ethyltrimethoxysilane] here?
Answer: 2.325 ± 0.26 kPa

Question: What about the “vapor or sublimation pressure” value (311.45 K) of the same compound?
Answer: 3.325 ± 0.26 kPa

Question: What about the “vapor or sublimation pressure” value (315.95 K) of the same compound?
Answer: 4.325 ± 0.26 kPa

Question: What about the “vapor or sublimation pressure” value (319.8 K) of the same compound?
Answer: 5.325 ± 0.27 kPa

Question: What about the “vapor or sublimation pressure” value (324.15 K) of the same compound?
Answer: 6.325 ± 0.29 kPa

Question: What about the “vapor or sublimation pressure” value (328.65 K) of the same compound?
Answer: 8.325 ± 0.32 kPa

Question: And the “vapor or sublimation pressure” value (334.15 K)?
Answer: 10.32 ± 0.36 kPa

Question: And the “vapor or sublimation pressure” value (338.95 K)?
Answer: 13.32 ± 0.42 kPa

Question: What about the “vapor or sublimation pressure” value (343.65 K) of the same compound?
Answer: 16.32 ± 0.47 kPa

Question: And the “vapor or sublimation pressure” value (347.65 K)?
Answer: 19.32 ± 0.54 kPa

Question: What about the “vapor or sublimation pressure” value (351.35 K) of the same compound?
Answer: 22.32 ± 0.6 kPa

Question: And the “vapor or sublimation pressure” value (354.55 K)?
Answer: 25.32 ± 0.67 kPa

Question: What about the “vapor or sublimation pressure” value (357.45 K) of the same compound?
Answer: 28.32 ± 0.74 kPa

Question: And the “vapor or sublimation pressure” value (360.15 K)?
Answer: 31.32 ± 0.81 kPa

Question: What about the “vapor or sublimation pressure” value (362.65 K) of the same compound?
Answer: 34.33 ± 0.87 kPa

Question: What about the “vapor or sublimation pressure” value (364.95 K) of the same compound?
Answer: 37.33 ± 0.94 kPa

Question: And the “vapor or sublimation pressure” value (367.55 K)?
Answer: 40.33 ± 1 kPa

Question: What about the “vapor or sublimation pressure” value (369.65 K) of the same compound?
Answer: 43.33 ± 1.1 kPa

Question: What about the “vapor or sublimation pressure” value (371.05 K) of the same compound?
Answer: 46.33 ± 1.1 kPa

Question: And the “vapor or sublimation pressure” value (374.05 K)?
Answer: 49.33 ± 1.2 kPa

Question: What about the “vapor or sublimation pressure” value (375.85 K) of the same compound?
Answer: 52.33 ± 1.3 kPa

Question: What about the “vapor or sublimation pressure” value (376.45 K) of the same compound?
Answer: 55.33 ± 1.6 kPa

Question: What about the “vapor or sublimation pressure” value (379.85 K) of the same compound?
Answer: 58.33 ± 1.4 kPa

Question: What about the “vapor or sublimation pressure” value (381.15 K) of the same compound?
Answer: 61.33 ± 1.5 kPa

Question: And the “vapor or sublimation pressure” value (382.55 K)?
Answer: 64.33 ± 1.6 kPa

Question: What about the “vapor or sublimation pressure” value (383.15 K) of the same compound?
Answer: 67.33 ± 1.6 kPa

Question: What about the “vapor or sublimation pressure” value (384.85 K) of the same compound?
Answer: 70.33 ± 1.7 kPa

Question: And the “vapor or sublimation pressure” value (385.85 K)?
Answer: 73.33 ± 1.8 kPa

Question: And the “vapor or sublimation pressure” value (386.65 K)?
Answer: 76.33 ± 1.9 kPa

Question: What about the “vapor or sublimation pressure” value (387.55 K) of the same compound?
Answer: 79.33 ± 1.9 kPa

Question: And the “vapor or sublimation pressure” value (388.95 K)?
Answer: 82.33 ± 2 kPa

Question: What about the “vapor or sublimation pressure” value (389.95 K) of the same compound?
Answer: 85.33 ± 2.1 kPa

Question: And the “vapor or sublimation pressure” value (390.95 K)?
Answer: 88.33 ± 2.1 kPa

Question: And the “vapor or sublimation pressure” value (392.95 K)?
Answer: 91.33 ± 2.2 kPa

Question: And the “vapor or sublimation pressure” value (393.05 K)?
Answer: 94.33 ± 2.3 kPa

Question: What about the “vapor or sublimation pressure” value (393.75 K) of the same compound?
Answer: 97.33 ± 2.4 kPa

Question: What about the “vapor or sublimation pressure” value (393.95 K) of the same compound?
Answer: 100.33 ± 2.3 kPa

Question: What about the “vapor or sublimation pressure” value (397.15 K) of the same compound?
Answer: 101.33 ± 2.3 kPa
